According to patent US12285448B2, “Bifidobacterium breve capable of relieving rheumatoid arthritis and application thereof” (Jiangnan University, priority 2020, dated 2025):

How the values were obtained:
Assay type in all cases: in vivo, Wistar rats
[1] = Content of short-chain fatty acids in the feces of rats with rheumatoid arthritis (GCMS); conditions: four weeks after booster immunization
Experimental: (§1) MRS liquid media (containing 0.05 g/100 mL cysteine) were respectively inoculated with the B. breve CCFM1078 obtained in Example 1 and LGG and anaerobically cultured at 37° C. for 18 h, and then transferred into fresh MRS liquid media (containing 0.05 g/100 mL cysteine) and cultured at same conditions for 24 h. Bacteria were centrifuged at 6000 g for 15 min, washed with 0.9 g/100 mL normal saline, and centrifuged again at 6000 g for 10 min to obtain the bacteria. The bacteria of the B. breve CCFM1078 and the LGG were resuspended to a cell concentration of 5×10^9 CFU/mL with sterile normal saline with a concentration of 0.9 g/100 mL, and bacterial solutions containing the B. breve CCFM1078 and the LGG were obtained.
(§2) Sixty 7-week-old SPF (Specific Pathogen Free) female Wistar rats were raised at a room temperature of 22-24° C., a humidity of 40-60%, and an alternation of 12 h/12 h day and night. After being raised for 1 week under the condition of ad libitum, the rats were randomly divided into 5 groups with 12 rats in each group. The 5 groups were a normal group, a model group, a drug group administered with methotrexate by gavage, an LGG group administered with LGG by gavage, and a CCFM1078 group administered with B. breve CCFM1078 by gavage.
The experiment was started after the rats were adaptively raised for one week, and lasted for eight weeks. During the two weeks before modelling, each rat in the normal group, the drug group and the model group was administered by gavage with 1.5 mL of sterile normal saline with a concentration of 0.9 g/100 mL per day, each rat in the LGG group was administered by gavage with 1.5 mL of an LGG bacterial solution with a concentration of 5×10^9 CFU/mL per day, and each rat in the CCFM1078 group was administered by gavage with 1.5 mL of a B. breve CCFM1078 bacterial solution with a concentration of 5×10^9 CFU/mL per day. The third week to the fourth week was a modelling period. On the first day of modelling, a bovine type II collagen solution (Chondrex, 20022) and a Freund's incomplete adjuvant (Chondrex, 7002) were mixed in equal volumes and emulsified to form a complete emulsion (the emulsion was prepared for immediate use, and the prepared emulsion was used within 1 h). A rat was anesthetized with isoflurane and immobilized, the whole rat tail root was disinfected with 75% (v/v) alcohol, and then the rat was subjected to primary immunization. In the primary immunization, 0.15 mL of the complete emulsion was accurately pipetted and injected subcutaneously at 1.5 cm from the tail root of the rat. One week later, booster immunization was conducted by the same treatment method, that is, 0.15 mL of the complete emulsion was accurately pipetted and injected subcutaneously at 2.0 cm from the tail root of the rat. The rats in the normal group were injected with only the same volume of sterile normal saline by the same method. […]

[2] = tested on: rats with rheumatoid arthritis (type II collagen-induced arthritis model); experiment: Body weight, joint thickness and clinical score of rats with type II collagen-induced arthritis; conditions: CIA rats
Experimental: A Type II Collagen-induced arthritis (CIA) model is a classic RA animal model. The onset of CIA has many similarities with rheumatoid arthritis (RA), such as synovial hyperplasia, pannus formation, and cartilage destruction. At present, […]. Therefore, in Examples 5-9, a type II collagen-induced arthritis (CIA) model was used as an RA animal model, and LGG was used as a control.
as §1
60 7-week-old SPF (Specific Pathogen Free) female Wistar rats were raised at a room temperature of 22-24° C., a humidity of 40-60%, and an alternation of 12 h/12 h day and night. […]

Th17 cells = experiment: Proportion of Th17 cells in the mesenteric lymph nodes of rats with rheumatoid arthritis (flow cytometry); conditions: four weeks after booster immunization; model group 13.97 times the normal group
Experimental: as §1, §2
The experiment was started after the rats were adaptively raised for one week, and lasted for eight weeks. […]

IL-1β = experiment: Level of IL-1β in the serum of rats with rheumatoid arthritis (ELISA); conditions: four weeks after booster immunization; model group 835 ng/L, normal group 143 ng/L
Experimental: as §1
(§3) 60 7-week-old SPF (Specific Pathogen Free) female Wistar rats were raised at a room temperature of 22-24° C., a humidity of 40-60%, and an alternation of 12 h/12 h day and night. After being raised for 1 week under the condition of ad libitum, the rats were randomly divided into 5 groups with 12 rats in each group. […]
(§4) Four weeks after the booster immunization, blood was collected and the rats were sacrificed. The rat serum was collected, and the levels of IL-1β and TNFα in the serum of the rats in each group were determined by an ELISA kit.

TNFα = experiment: Level of TNFα in the serum of rats with rheumatoid arthritis (ELISA); conditions: four weeks after booster immunization; model group 14 ng/L, normal group 9.8 ng/L
Experimental: as §1, §3, §4

IL-10 = experiment: Level of IL-10 in the serum of rats with rheumatoid arthritis (ELISA); conditions: four weeks after booster immunization; model group 1.64 ng/L, normal group 1.59 ng/L
Experimental: as §1
as §3, with “Sixty 7-week-old” for “60 7-week-old”
Four weeks after the booster immunization, blood was collected and the rats were sacrificed. The rat serum was collected, and the level of IL-10 in the serum of the rats in each group were determined by an ELISA kit.

For `CN(Cc1cnc2nc(N)nc(N)c2n1)c1ccc(C(=O)N[C@@H](CCC(=O)O)C(=O)O)cc1` [methotrexate, Methotrexate], the “content of acetic acid in the feces relative to the model group” value [1] was 1.1 times, the “content of butyric acid in the feces relative to the model group” value [1] was 1.3 times and the “content of isobutyric acid in the feces relative to the model group” value [1] was 1.3 times. For the same compound, the “content of pentanoic acid in the feces relative to the model group” value [1] was 1 times, the “content of propionic acid in the feces relative to the model group” value [1] was 1.2 times and the “paw thickness (comparison in words)” value ([2]; FIG. 3) was “significantly lower than that of the rats in the model group and restored to normal in the last week”. The “body weight change (trend)” value ([2]; gavage, after booster immunization, FIG. 2) was “not significant”, the “proportion of Th17 cells in the mesenteric lymph nodes relative to the model group” value (Th17 cells) was 12.7% and the “level of IL-1β in the serum” value (IL-1β) was 159 ng/L. The “level of TNFα in the serum” value (TNFα) was 12 ng/L and the “concentration of IL-10 in the serum” value (IL-10) was 1.62 ng/L.
